In patent publication US8637237B2, “Methods, compositions, and systems for the identification of species-specific or developmental stage-specific insecticides” (The University of North Carolina at Greensboro, priority 2003, dated 2014):

Assays:
Format in all cases: cell-based
[1] = molecular target: T1, EcRB1/USP (Drosophila melanogaster, UniProt P34021); experiment: EcRB1 isoform with USP (VP16CfUSP), (EcRE)5-ΔMTV-LUC in CHO cells
T1 construct: The plasmid encodes a version of EcRB1 that includes 878 amino acids, and deletes the F domain; expressed in transfected cells; host or cells: CHO
T1 sequence (P34021 1-878): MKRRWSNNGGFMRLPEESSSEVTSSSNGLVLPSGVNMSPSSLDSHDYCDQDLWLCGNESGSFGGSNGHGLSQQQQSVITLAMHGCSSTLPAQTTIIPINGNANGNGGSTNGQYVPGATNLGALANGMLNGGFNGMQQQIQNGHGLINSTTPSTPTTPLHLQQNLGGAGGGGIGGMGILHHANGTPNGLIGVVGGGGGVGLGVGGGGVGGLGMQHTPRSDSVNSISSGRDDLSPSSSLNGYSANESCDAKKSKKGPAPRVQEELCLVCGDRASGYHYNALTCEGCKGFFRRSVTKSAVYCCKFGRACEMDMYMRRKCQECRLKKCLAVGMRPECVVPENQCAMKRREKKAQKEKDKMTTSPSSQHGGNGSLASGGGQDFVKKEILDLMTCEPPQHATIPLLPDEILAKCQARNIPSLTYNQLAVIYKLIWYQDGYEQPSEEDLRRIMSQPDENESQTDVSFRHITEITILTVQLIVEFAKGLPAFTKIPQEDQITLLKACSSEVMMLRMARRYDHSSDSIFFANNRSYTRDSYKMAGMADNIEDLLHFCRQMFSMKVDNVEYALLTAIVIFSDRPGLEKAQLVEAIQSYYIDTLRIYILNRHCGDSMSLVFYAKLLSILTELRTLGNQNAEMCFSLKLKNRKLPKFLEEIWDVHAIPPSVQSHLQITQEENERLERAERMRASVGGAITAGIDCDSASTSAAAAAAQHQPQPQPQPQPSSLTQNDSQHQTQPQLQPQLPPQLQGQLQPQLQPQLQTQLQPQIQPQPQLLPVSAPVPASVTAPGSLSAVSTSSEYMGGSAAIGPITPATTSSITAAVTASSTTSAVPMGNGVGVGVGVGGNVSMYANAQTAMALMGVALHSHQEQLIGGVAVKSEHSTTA
T1 sequence (O76202 192-472 partner): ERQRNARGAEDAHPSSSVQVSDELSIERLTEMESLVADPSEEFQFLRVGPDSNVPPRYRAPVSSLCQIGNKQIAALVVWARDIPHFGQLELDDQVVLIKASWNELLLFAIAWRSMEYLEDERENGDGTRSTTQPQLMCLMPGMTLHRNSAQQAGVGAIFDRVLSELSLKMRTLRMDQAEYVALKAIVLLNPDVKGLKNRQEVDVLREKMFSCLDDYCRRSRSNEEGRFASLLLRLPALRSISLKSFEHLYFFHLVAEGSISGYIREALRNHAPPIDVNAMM
Procedure: (§1) These experiments employed a mammalian cell culture system using Chinese hamster ovary cells (CHO) to evaluate the transcriptional function of Drosophila melanogaster EcR and USP using methods described previously (U.S. Patent Application Publication No: 2005/0049230; Henrich et al, 2003). Cells were seeded in 6-well polypropylene culture plates (Falcon) with 10^5 cells per well on the day prior to transfection. Transfection was subsequently performed using either calcium phosphate (Kitareewan et al., 1996, Mol. Biol. Cell, 7:1153-1196) or a GenePorter reagent (Gene Therapy Systems, Inc; San Diego, Calif.) following manufacturer's protocols. Each well received 1.25 μg of (EcRE)5-ΔMTV-CAT (five copies of the hsp27 EcRE inserted into an mouse mammary tumor virus (MTV) promoter upstream of the chloramphenicol acetyltransferase (CAT) gene) or (EcRE)5-ΔMTV-LUC (the same promoter attached to firefly luciferase), 1.25 μg of pCH111 (SV40 early promoter linked to the β-galactosidase gene) to normalize CAT activity, and 0.25 μg of each expression plasmid (EcR, FXR, RXR, USP) that was tested. The cells were incubated with plasmid DNA for seven hours and then washed with 1×PBS. Muristerone A (murA; Alexis Biochemicals) or 20-hydroxyecdysone (20E; Sigma) dissolved in ethanol to a concentration of 10 mM was diluted as necessary to the final assay concentration (FAC) in 2 ml of fresh incubation medium that was then applied to the cells. Similarly, JHIII (Sigma) was dissolved in dimethyl sulfoxide (DMSO) to a concentration of […] and diluted into the incubation medium to its final assay concentration (20, 40, 80, 160 μM). […] A corresponding volume of ethanol and DMSO were added to control cells for all experiments. For all experiments, the cells were allowed to incubate with the medium for 24 hours before collection and cell lysates were prepared by described methods (Kitareewan et al., 1996). Both β-galactosidase and CAT reporter activity were measured based on previously used methods (Kitareewan et al, 1996). Luciferase assays using luciferrin followed the specifications of the manufacturer.
Transcriptional activity, measured as ^14C-chloramphenicol counts (for measuring CAT activity) or relative luciferase activity (RLU) was quantified for each cell lysate. The counts were then normalized by adjusting for differences in β-galactosidase activity, since β-galactosidase expression is controlled by a constitutive promoter and provides an estimate of cell mass. Data were normalized as fold-induction based on differences in reporter gene activity between hormonally treated and control cells.

[2] = molecular target: T2, FXR and USP (Rattus norvegicus, UniProt Q62735); experiment: FXR with USP, reporter in CHO cells
T2 construct: expressed in transfected cells; host or cells: CHO
T2 sequence (Q62735 1-469): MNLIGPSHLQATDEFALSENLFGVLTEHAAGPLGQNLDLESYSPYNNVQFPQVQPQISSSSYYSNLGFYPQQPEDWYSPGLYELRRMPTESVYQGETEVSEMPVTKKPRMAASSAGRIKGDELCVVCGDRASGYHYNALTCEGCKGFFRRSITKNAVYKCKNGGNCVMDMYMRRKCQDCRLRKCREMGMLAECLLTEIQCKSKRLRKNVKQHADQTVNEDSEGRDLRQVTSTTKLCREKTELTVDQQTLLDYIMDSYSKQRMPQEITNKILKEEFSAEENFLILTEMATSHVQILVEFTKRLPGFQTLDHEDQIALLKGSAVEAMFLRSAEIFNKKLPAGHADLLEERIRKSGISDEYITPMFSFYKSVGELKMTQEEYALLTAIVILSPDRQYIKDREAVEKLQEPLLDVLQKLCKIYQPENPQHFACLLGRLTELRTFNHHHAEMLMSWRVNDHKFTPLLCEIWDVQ
Procedure: as §1, with “Luciferase assays using luciferrin followed the specifications of the manufacturer.” left out

[3] = molecular target: T3, VP16dEcR/USP (Drosophila melanogaster, UniProt P34021); experiment: VP16dEcR with USP (VP16CfUSP), reporter in CHO cells
T3 construct: expressed in transfected cells; host or cells: CHO
Procedure: (§2) These experiments employed a mammalian cell culture system using Chinese hamster ovary cells (CHO) to evaluate the transcriptional function of Drosophila melanogaster EcR and USP using methods described previously (U.S. Patent Application Publication No: 2005/0049230; Henrich et al, 2003). Cells were seeded in 6-well polypropylene culture plates (Falcon) with 10^5 cells per well on the day prior to transfection. Transfection was subsequently performed using either calcium phosphate (Kitareewan et al., 1996, Mol. Biol. Cell, 7:1153-1196) or a GenePorter reagent (Gene Therapy Systems, Inc; San Diego, Calif.) following manufacturer's protocols. Each well received 1.25 μg of (EcRE)5-ΔMTV-CAT (five copies of the hsp27 EcRE inserted into an mouse mammary tumor virus (MTV) promoter upstream of the chloramphenicol acetyltransferase (CAT) gene) or (EcRE)5-ΔMTV-LUC (the same promoter attached to firefly luciferase), 1.25 μg of pCH111 (SV40 early promoter linked to the β-galactosidase gene) to normalize CAT activity, and 0.25 μg of each expression plasmid (EcR, FXR, RXR, USP) that was tested. […] Both β-galactosidase and CAT reporter activity were measured based on previously used methods (Kitareewan et al, 1996). […]
(§3) Transcriptional activity, measured as ^14C-chloramphenicol counts (for measuring CAT activity) or relative luciferase activity (RLU) was quantified for each cell lysate. […]

[4] = molecular target: T4, EcRB1/RXR (Drosophila melanogaster, UniProt P34021); experiment: EcRB1 isoform with RXR, reporter in CHO cells
T4 construct: The plasmid encodes a version of EcRB1 that includes 878 amino acids, and deletes the F domain; expressed in transfected cells; host or cells: CHO
Procedure: as §2, §3

SMILES | transcriptional response to 20E ([1]; EcRB1 + VP16CfUSP, 10 μM 20E) | 20E (inducibility) ([1]; EcRB1/USP, 10 μM 20E) | elevation of FXR-mediated activity by ecdysteroid added with JHIII [2] | potentiation of murA response by JHIII ([1]; EcRB1 + VP16CfUSP, 80 μM JHIII with 0.1 μM murA) | MurA + JHIII (JHIII potentiation) ([1]; EcRB1/USP, 0.1 μM murA + 80 μM JHIII) | response of FXR and USP to JHIII ([2]; CHO cells) | MurA + JHIII (JHIII potentiation) ([3]; 0.1 μM murA + 80 μM JHIII) | MurA + JHIII (JHIII potentiation) ([4]; 0.1 μM murA + 80 μM JHIII) | induction by murA ([1]; EcRB1 + VP16CfUSP, 1 μM murA) | MurA (inducibility) ([1]; EcRB1/USP, 0.1 μM murA) | MurA (inducibility) ([3]; 0.1 μM murA) | MurA (inducibility) ([4]; 0.1 μM murA)
CC(C)(O)CC[C@@H](O)[C@](C)(O)[C@H]1CC[C@@]2(O)C3=CC(=O)[C@@H]4C[C@@H](O)[C@@H](O)C[C@]4(C)[C@H]3CC[C@]12C [20E, 20-hydroxyecdysone] | consistent and discernible transcriptional response | + ((+) designates a change in transcriptional level that exceeds 2.5-fold) | no elevation |  |  |  |  |  |  |  |  | 
COC(=O)/C=C(\C)CC/C=C(\C)CC[C@H]1OC1(C)C [JHIII, juvenile hormone III] |  |  |  | potentiated | + ((+) indicates observed potentiation that exceeds 2-fold above the levels observed with ecdysteroid alone) | low level response | + ((+) indicates observed potentiation that exceeds 2-fold above the levels observed with ecdysteroid alone) | + ((+) indicates observed potentiation that exceeds 2-fold above the levels observed with ecdysteroid alone) |  |  |  | 
CC(C)CC[C@@H](O)[C@](C)(O)[C@H]1CC[C@@]2(O)C3=CC(=O)[C@]4(O)C[C@@H](O)[C@@H](O)C[C@]4(C)[C@H]3[C@H](O)C[C@]12C [murA, muristerone A] |  |  | no elevation |  |  |  |  |  | 30-40 fold | + ((+) designates a change in transcriptional level that exceeds 2.5-fold) | + ((+) designates a change in transcriptional level that exceeds 2.5-fold) | + ((+) designates a change in transcriptional level that exceeds 2.5-fold)
